Consider 38 compounds from the supplement of paper PMC8024199.

± gives the standard deviation of the averaged measurements.

What all share (assay): drug sensitivity score (DSS) (DSS score); higher = more sensitive (stronger growth inhibition); extreme values may be limits of the assay
For experiment [1], the system named is Ba/F3 P210-BCR-ABL1 RUNX1-/- (mouse). A digest of the protocol: (§1)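 Mouse Ba/F3 cells carrying P210-BCR-ABL1, CRISPR/Cas9-edited at runx1 exon 4 or edited-control clones, were screened against a 528-compound library on pre-printed 384-well plates. Each compound ran at five concentrations spanning a 10,000-fold range, with 10,000 cells per well in RPMI with 10% FBS for 72 h at 37 °C and 5% CO2. CellTiter-Glo luminescence was scaled between vehicle and positive-control wells. A drug sensitivity score summarised each dose-response, averaged over two replicates.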

The test system of experiment [2] is Ba/F3 P210-BCR-ABL1 RUNX1-/mut (mouse). Summed up: as §1
Experiment [3] deals with Ba/F3 P210-BCR-ABL1 RUNX1wt/wt control (mouse). Summed up:
as §1

Take `COc1cc2c(Nc3ccc(Cl)c(Cl)c3F)ncnc2cc1OC[C@@H]1C[C@@H]2CN(C)C[C@@H]2C1` [Tesevatinib]: the drug sensitivity score in experiment [1] stood at 0.55 ± 0.49; in experiment [2], 0.9 ± 1.3; in experiment [3] it was 0.
Taken in the same sequence, the figures for `O=c1sn(-c2cccc3ccccc23)c(=O)n1Cc1ccccc1` [Tideglusib] were 0, 0 and 0.
Taken in the same sequence, the figures for `Cn1cncc1[C@@](N)(c1ccc(Cl)cc1)c1ccc2c(c1)c(-c1cccc(Cl)c1)cc(=O)n2C` [Tipifarnib] were 22.4 ± 2.8, 18.5 ± 2.3 and 4.55 ± 0.071.
As for `CC#CC(=O)N1CC[C@@H](n2c(=O)n(-c3ccc(Oc4ccccc4)cc3)c3c(N)ncnc32)C1` [Tirabrutinib], the drug sensitivity score was determined as 0.85 ± 0.92 in experiment [1], 0.65 ± 0.78 in experiment [2] and 0 in experiment [3].
In the same order, the values of `O=C1NC(=O)[C@@H](c2cn3c4c(cccc24)CCC3)[C@@H]1c1c[nH]c2ccccc12` [Tivantinib] are 5.6 ± 0.57, 5.45 ± 0.071 and 3.25 ± 0.071.
In the same order, the values of `COc1cc2nccc(Oc3ccc(NC(=O)Nc4cc(C)on4)c(Cl)c3)c2cc1OC` [Tivozanib] are 22.8 ± 0.92, 18.1 ± 0.92 and 14.45 ± 0.071.
Taken in the same sequence, the figures for `CN(C)CCOc1ccc(/C(=C(/CCCl)c2ccccc2)c2ccccc2)cc1` [Toremifene] were 5.9 ± 1.7, 6.9 ± 2.7 and 4.85 ± 0.35.
With `CC(C)C[C@@H](C(=O)N[C@H](C(=O)OC1CCCC1)c1ccccc1)[C@H](O)C(=O)NO` [Tosedostat], the drug sensitivity score in experiment [1] came out at 11.4 ± 1.7; in experiment [2], 11.3 ± 4.3; in experiment [3], 1.85 ± 0.49.
In the same order, the values of `Cc1cc(Nc2cc(N3CCN(C)CC3)nc(Sc3ccc(NC(=O)C4CC4)cc3)n2)n[nH]1` [Tozasertib] are 17.7 ± 0.14, 12.3 ± 0.85 and 7.95 ± 0.071.
Take `NC(=S)N/N=C/c1ncccc1N` [Triapine]: the drug sensitivity score in experiment [1] worked out at 5.6 ± 0.28; in experiment [2] it was 5.05 ± 0.071; in experiment [3], 4.65 ± 0.071.
In the case of `O=c1[nH]c(=O)n([C@H]2C[C@H](O)[C@@H](CO)O2)cc1C(F)(F)F` [Trifluridine], the drug sensitivity score was 15.5 ± 0.14 in experiment [1], 14.6 ± 0.85 in experiment [2] and 8.45 ± 0.21 in experiment [3].
In the case of `O=C(CCCCCCC(=O)Nc1ccc([C@H]2O[C@@H](CSc3nc(-c4ccccc4)c(-c4ccccc4)o3)C[C@@H](c3ccc(CO)cc3)O2)cc1)NO` [Tubacin], the drug sensitivity score in experiment [1] amounted to 6.45 ± 1.2; in experiment [2], 6.2 ± 0.28; in experiment [3], 4.35 ± 0.78.
Consider `CN1CCc2c(c3ccccc3n2Cc2ccc(C(=O)NO)cc2)C1` [Tubastatin A], for which the drug sensitivity score in experiment [1] is 4.05 ± 0.64; in experiment [2], 3.6; in experiment [3] it was 0.
Take `Cc1cc(Nc2ncnc3ccc(NC4=NC(C)(C)CO4)cc23)ccc1Oc1ccn2ncnc2c1` [Tucatinib]: the figures for the drug sensitivity score in experiment [1], in experiment [2] and in experiment [3] were 0.4 ± 0.57, 0 and 0, respectively.
Turning to `Nc1cc(F)ccc1NC(=O)c1ccc(CNC(=O)/C=C/c2cccnc2)cc1` [Tucidinostat], the drug sensitivity score was 9.05 ± 2.8 in experiment [1], 8.05 ± 4.6 in experiment [2] and 4.9 ± 0.14 in experiment [3].
Taken in the same sequence, the figures for `COC(=O)c1ccc2c(c1)[nH]c1ncnc(NCCCN3CCCCC3)c12` [UM729] were 4.1 ± 1.1, 3.5 ± 4.5 and 0.
Taken in the same sequence, the figures for `COc1cc2c(NC3CCN(C(C)C)CC3)nc(C3CCCCC3)nc2cc1OCCCN1CCCC1` [UNC0638] were 9.2 ± 0.57, 7.75 ± 2 and 1.45 ± 0.64.
In the same order, the values of `COc1cc2c(NC3CCN(C(C)C)CC3)nc(N3CCC(F)(F)CC3)nc2cc1OCCCN1CCCC1` [UNC0642] are 5.35 ± 1.6, 6.5 ± 3 and 0.15 ± 0.071.
For `O=C(c1ccc(C(=O)N2CCC(N3CCCC3)CC2)c(Nc2ccccc2)c1)N1CCC(N2CCCC2)CC1` [UNC1215], the drug sensitivity score in experiment [1], in experiment [2] and in experiment [3] was 0 throughout.
Regarding `CCCCNc1ncc(C(=O)NCc2ccc(-n3ccnc3)cc2)c(NC2CCC(O)CC2)n1` (centres undefined) [UNC2881], the drug sensitivity score in experiment [1] came out at 0.3 ± 0.42; in experiment [2] it was 0; in experiment [3], 0.
Turning to `NC(=O)c1cccc(-c2cccc(OC(=O)NC3CCCCC3)c2)c1` [URB597], the drug sensitivity score in experiment [1] came to 0; in experiment [2], 0.15 ± 0.21; in experiment [3], 0.05 ± 0.071.
Take `CC(C)Nc1cc(-c2c[nH]c(C(=O)N[C@H](CO)c3cccc(Cl)c3)c2)c(Cl)cn1` [Ulixertinib]: the figures for the drug sensitivity score in experiment [1], in experiment [2] and in experiment [3] were 7.25 ± 0.071, 5.6 ± 0.42 and 2.45 ± 1.6, respectively.
In the same order, the values of `CC[C@@H]1CN(C(=O)NCC(F)(F)F)C[C@@H]1c1cnc2cnc3[nH]ccc3n12` [Upadacitinib] are 0.75 ± 1.1, 0.05 ± 0.071 and 5.35 ± 3.
As for `Cn1ncc(Cl)c1-c1cc(C(=O)N[C@H](CN)Cc2ccc(F)c(F)c2)oc1Cl` [Uprosertib], the figures for the drug sensitivity score in experiment [1], in experiment [2] and in experiment [3] were 0.4 ± 0.57, 0 and 0, respectively.
As for `CS(=O)(=O)c1ccc(-c2cnc(N)c(C(=O)Nc3ccccc3)n2)cc1` [VE-821], the drug sensitivity score was 5.55 ± 4.5 in experiment [1], 4.3 ± 4.8 in experiment [2] and 1.8 in experiment [3].
Turning to `O=C(O)CC1CC(c2ccccc2)=NO1` (centres undefined) [VGX-1027], the figures for the drug sensitivity score in experiment [1], in experiment [2] and in experiment [3] were 0.9 ± 1.3, 0.05 ± 0.071 and 0, respectively.
Taken in the same sequence, the figures for `C=CC(=O)N1CC/C(=C\c2ccc(F)c([N+](=O)[O-])c2)C(=O)/C(=C/c2ccc(F)c([N+](=O)[O-])c2)C1` [VLX1570] were 23.1 ± 0.78, 23.5 ± 4.7 and 15.8 ± 0.92.
`CNC(=O)c1ccccc1Nc1cc(Nc2ccc(N3CCOCC3)cc2OC)ncc1C(F)(F)F` [VS-4718]: the drug sensitivity score in experiment [1] came to 8.65 ± 0.49; in experiment [2] it was 7.65 ± 1.1; in experiment [3] it was 4.2 ± 0.28.
In the same order, the values of `CCCC(CCC)C(=O)O` [Valproic acid] are 2.3 ± 0.28, 0.75 ± 0.071 and 0.
In the same order, the values of `CCc1c(C(=O)C(N)=O)c2c(OCC(=O)O)cccc2n1Cc1ccccc1` [Varespladib] are 0, 0.65 ± 0.92 and 0.
With `C[C@@H]1COC(Nc2ccc3ncnc(Nc4ccc(OCc5nccs5)c(Cl)c4)c3c2)=N1` [Varlitinib], the drug sensitivity score in experiment [1] stood at 1.35 ± 1.9; in experiment [2], 1.15 ± 1.6; in experiment [3] it was 0.
Taken in the same sequence, the figures for `CC1(C)CCC(CN2CCN(c3ccc(C(=O)NS(=O)(=O)c4ccc(NCC5CCOCC5)c([N+](=O)[O-])c4)c(Oc4cnc5[nH]ccc5c4)c3)CC2)=C(c2ccc(Cl)cc2)C1` [Venetoclax] were 0, 1.05 ± 1.5 and 1.4 ± 1.4.
Consider `O=C(/C=C\n1cnc(-c2cc(C(F)(F)F)cc(C(F)(F)F)c2)n1)NNc1ccccn1` [Verdinexor], for which the figures for the drug sensitivity score in experiment [1], in experiment [2] and in experiment [3] were 14.4 ± 0.92, 13.3 ± 0.57 and 9.1 ± 0.42, respectively.
For the compound `CCCCOc1nc(N)c2c(n1)N(Cc1cccc(CN3CCCC3)c1)CC(=O)N2` [Vesatolimod], the drug sensitivity score is 2.65 ± 3.8 in experiment [1], 3.25 ± 3.8 in experiment [2] and 1.65 ± 0.35 in experiment [3].
In the case of `COc1cccc(-c2ccc(NC(=O)C3=C(C(=O)O)CCC3)c(F)c2)c1` [Vidofludimus], the drug sensitivity score worked out at 2.2 ± 2.8 in experiment [1], 2.4 ± 1.7 in experiment [2] and 0 in experiment [3].
Taken in the same sequence, the figures for `CC[C@]1(O)C[C@H]2CN(CCc3c([nH]c4ccccc34)[C@@](C(=O)OC)(c3cc4c(cc3OC)N(C=O)[C@H]3[C@@](O)(C(=O)OC)[C@H](OC(C)=O)[C@]5(CC)C=CCN6CC[C@]43[C@@H]65)C2)C1` [Vincristine] were 23.9 ± 4.2, 23.1 ± 2.5 and 13.9 ± 2.3.
For `CC[C@]12C=CCN3CC[C@@]4(c5cc([C@@]6(C(=O)OC)C[C@@H]7C[C@@H](C(C)(F)F)CN(Cc8c6[nH]c6ccccc86)C7)c(OC)cc5N(C)[C@H]4[C@@](O)(C(=O)OC)[C@@H]1OC(C)=O)[C@@H]32` [Vinflunine], the drug sensitivity score came to 4.4 ± 0.42 in experiment [1], 3.95 ± 0.49 in experiment [2] and 3.55 ± 0.21 in experiment [3].
In the same order, the values of `CCC1=C[C@@H]2CN(C1)Cc1c([nH]c3ccccc13)[C@@](C(=O)OC)(c1cc3c(cc1OC)N(C)[C@H]1[C@@](O)(C(=O)OC)[C@H](OC(C)=O)[C@]4(CC)C=CCN5CC[C@]31[C@@H]54)C2` [Vinorelbine] are 38 ± 2.1, 36.1 ± 1.1 and 19.1.
